According to ChEMBL document CHEMBL1201862, “PubChem BioAssay data set” (2004):
The source made the active and inactive calls.

Assays:
cells = type: functional
[1] = HepG2 cell cytotoxicity, dose response, cytotoxicity control for non-replicating M. tuberculosis project (AID 489018); type: functional; conditions: Mycobacterium tuberculosis
[2] = THP-1 cell cytotoxicity, dose response, cytotoxicity control for non-replicating M. tuberculosis project (AID 489025); type: functional
[3] = Vero E6 cell cytotoxicity, dose response, cytotoxicity control for non-replicating M. tuberculosis project, secondary assay (AID 492998); type: functional, VeroE6; conditions: Vero C1008
CAAX prenyl protease 2 [4] = biological target: T1, CAAX prenyl protease 2 (Saccharomyces cerevisiae S288c, UniProt Q03530); type: biochemical
T1 sequence (Q03530 whole entry): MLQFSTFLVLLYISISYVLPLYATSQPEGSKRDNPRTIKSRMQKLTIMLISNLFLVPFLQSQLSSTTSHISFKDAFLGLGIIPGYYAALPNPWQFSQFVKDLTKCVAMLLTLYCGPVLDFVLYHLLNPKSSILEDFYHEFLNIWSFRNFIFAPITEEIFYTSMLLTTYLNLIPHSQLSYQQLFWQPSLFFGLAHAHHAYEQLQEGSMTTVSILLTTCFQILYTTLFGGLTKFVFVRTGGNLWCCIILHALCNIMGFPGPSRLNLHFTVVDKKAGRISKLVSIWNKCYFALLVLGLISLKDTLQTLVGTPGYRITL

CAAX prenyl protease 2 [5] = biological target: T2, CAAX prenyl protease 2 (Homo sapiens, UniProt Q9Y256); assay: inhibition of Ras-converting CAAX protease Rce1 – biochemical, yeast membranes, quenched-peptide fluorescence, cherry-pick, dose response (AID 588849)
T2 sequence (Q9Y256 whole entry): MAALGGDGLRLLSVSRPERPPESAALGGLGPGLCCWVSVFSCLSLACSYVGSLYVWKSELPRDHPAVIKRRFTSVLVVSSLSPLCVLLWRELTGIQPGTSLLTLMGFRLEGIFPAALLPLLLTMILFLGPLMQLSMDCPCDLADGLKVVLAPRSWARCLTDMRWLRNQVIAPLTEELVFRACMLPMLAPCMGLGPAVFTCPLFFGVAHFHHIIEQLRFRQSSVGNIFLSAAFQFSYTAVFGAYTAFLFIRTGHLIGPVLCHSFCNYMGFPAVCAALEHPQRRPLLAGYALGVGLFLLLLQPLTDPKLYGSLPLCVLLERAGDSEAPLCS

Trypsin = Trypsin (Sus scrofa, UniProt P00761); assay: trypsin protease activity blockade – biochemical, quenched peptide fluorescence, cherry-pick, selectivity assay for Rce1 protease inhibitor project, dose response (AID 488789)
Trypsin, sequence (P00761 whole entry): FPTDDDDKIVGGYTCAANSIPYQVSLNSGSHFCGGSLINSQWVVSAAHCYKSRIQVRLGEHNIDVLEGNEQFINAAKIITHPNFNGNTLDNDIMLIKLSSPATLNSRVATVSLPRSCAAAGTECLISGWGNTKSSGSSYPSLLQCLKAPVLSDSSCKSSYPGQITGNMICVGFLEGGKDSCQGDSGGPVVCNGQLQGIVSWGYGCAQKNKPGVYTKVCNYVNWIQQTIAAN

Vero = assay: cells; type: functional; conditions: Chlorocebus sabaeus
[6] = biological target: T3, Microphthalmia-associated transcription factor (Homo sapiens, UniProt O75030); assay: reducers of TRPM1 reporter luminescence, concentration series – cell-based, SK-MEL-5, cherry-picked, set 3, MITF inhibitor project, dose response (AID 493073); type: functional;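 note: SK-MEL-5 melanoma cells with luciferase driven by the MITF target TRPM1 promoter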
T3 sequence (O75030 whole entry): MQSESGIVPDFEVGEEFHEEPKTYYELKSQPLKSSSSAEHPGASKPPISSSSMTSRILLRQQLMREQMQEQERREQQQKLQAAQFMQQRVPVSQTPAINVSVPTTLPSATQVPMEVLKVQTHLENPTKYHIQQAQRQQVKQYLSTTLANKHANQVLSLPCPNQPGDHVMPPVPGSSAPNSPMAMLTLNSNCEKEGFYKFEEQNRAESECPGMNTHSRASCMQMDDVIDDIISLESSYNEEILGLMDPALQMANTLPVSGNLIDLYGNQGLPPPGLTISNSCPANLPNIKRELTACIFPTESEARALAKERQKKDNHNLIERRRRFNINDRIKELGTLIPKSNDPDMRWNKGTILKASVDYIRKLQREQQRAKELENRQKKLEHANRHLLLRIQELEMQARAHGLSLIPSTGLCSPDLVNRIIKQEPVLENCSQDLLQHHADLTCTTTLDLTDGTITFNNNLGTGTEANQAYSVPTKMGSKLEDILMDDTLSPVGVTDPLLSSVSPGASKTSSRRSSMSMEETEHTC

[7] = biological target: Peroxisome proliferator-activated receptor gamma/Nuclear receptor coactivator 2 (Homo sapiens, UniProt P37231); assay: TR-FRET dose response biochemical High Throughput Screening assay for agonists of the steroid receptor coactivator 2 (SRC-2) recruitment by the peroxisome proliferator-activated receptor gamma (PPAR gamma): non-selective agonists. [Related pubchem assays: 1297, 1032 ]; type: functional
Peroxisome proliferator-activated receptor gamma/Nuclear receptor coactivator 2, sequence (P37231 whole entry): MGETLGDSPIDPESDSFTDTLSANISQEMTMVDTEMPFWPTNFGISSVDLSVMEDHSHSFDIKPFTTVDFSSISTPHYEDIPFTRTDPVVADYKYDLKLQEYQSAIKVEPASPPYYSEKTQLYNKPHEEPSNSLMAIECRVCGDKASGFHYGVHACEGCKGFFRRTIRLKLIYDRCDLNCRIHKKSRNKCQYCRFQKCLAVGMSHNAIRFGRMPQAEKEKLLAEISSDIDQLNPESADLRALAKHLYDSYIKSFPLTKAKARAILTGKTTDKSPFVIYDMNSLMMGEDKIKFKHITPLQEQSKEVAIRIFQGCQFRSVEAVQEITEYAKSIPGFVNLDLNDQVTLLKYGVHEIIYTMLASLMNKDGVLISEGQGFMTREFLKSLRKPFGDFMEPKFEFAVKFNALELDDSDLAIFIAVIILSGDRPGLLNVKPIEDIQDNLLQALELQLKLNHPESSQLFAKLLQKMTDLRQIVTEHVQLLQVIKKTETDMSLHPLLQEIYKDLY
Peroxisome proliferator-activated receptor gamma/Nuclear receptor coactivator 2, sequence (Q15596 whole entry, further chain): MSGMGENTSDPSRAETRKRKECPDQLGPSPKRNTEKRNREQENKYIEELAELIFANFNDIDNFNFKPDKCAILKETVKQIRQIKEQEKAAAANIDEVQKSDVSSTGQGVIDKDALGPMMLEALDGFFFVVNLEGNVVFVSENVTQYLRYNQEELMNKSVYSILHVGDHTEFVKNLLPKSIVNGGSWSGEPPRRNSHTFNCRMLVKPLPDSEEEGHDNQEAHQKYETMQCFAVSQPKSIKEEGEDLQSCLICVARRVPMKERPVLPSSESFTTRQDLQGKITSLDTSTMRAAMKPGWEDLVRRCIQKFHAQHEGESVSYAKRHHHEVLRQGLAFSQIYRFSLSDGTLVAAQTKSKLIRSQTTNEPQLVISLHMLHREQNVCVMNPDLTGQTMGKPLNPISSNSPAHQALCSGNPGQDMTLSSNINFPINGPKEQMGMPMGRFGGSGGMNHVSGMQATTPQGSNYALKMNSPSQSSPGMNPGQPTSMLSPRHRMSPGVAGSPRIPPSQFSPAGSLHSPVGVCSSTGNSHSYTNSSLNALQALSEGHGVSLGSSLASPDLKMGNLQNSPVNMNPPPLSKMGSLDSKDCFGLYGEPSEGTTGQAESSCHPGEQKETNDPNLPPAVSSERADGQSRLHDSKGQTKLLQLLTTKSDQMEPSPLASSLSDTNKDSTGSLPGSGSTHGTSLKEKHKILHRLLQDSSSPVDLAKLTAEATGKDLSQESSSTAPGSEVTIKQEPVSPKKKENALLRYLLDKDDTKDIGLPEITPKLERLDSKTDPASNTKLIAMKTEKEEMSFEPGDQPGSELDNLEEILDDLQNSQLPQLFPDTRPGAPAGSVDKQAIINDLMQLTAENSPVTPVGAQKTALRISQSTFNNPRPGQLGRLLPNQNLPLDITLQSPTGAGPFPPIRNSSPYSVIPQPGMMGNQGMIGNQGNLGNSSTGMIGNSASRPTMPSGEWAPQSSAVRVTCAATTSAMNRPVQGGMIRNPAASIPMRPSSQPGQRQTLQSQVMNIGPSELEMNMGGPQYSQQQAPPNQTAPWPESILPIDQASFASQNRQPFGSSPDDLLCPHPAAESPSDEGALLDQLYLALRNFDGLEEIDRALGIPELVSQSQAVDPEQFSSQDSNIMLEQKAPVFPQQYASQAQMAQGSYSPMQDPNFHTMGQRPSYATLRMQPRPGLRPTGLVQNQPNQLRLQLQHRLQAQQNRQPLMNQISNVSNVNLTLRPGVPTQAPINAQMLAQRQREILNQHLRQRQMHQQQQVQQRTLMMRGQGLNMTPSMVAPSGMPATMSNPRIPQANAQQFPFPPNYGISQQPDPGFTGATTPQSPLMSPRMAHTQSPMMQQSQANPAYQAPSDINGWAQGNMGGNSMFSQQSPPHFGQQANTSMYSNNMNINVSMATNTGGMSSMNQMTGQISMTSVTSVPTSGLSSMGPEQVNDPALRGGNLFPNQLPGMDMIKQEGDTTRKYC

[8] = biological target: Peroxisome proliferator-activated receptor gamma/Nuclear receptor coactivator 3 (Homo sapiens, UniProt P37231); assay: TR-FRET dose response biochemical High Throughput Screening assay for agonists of the steroid receptor coactivator 3 (SRC-3) recruitment by the peroxisome proliferator-activated receptor gamma (PPAR gamma): non-selective agonists. [Related pubchem assays: 1301 (Confirmation screen.), 1048 (Primary screen.)]; type: functional
[9] = viability of uninfected HEp-2 cells – cell-based, HTS, cytotoxicity control for RSV inhibitor project, dose response (AID 2410); type: functional; conditions: human respiratory syncytial virus
[10] = biological target: Peroxisome proliferator-activated receptor gamma/Nuclear receptor coactivator 1 (Homo sapiens, UniProt P37231); assay: TR-FRET dose response biochemical High Throughput Screening assay for agonists of the steroid receptor coactivator 1 (SRC-1) recruitment by the peroxisome proliferator-activated receptor gamma (PPAR gamma): non-selective agonists. [Related pubchem assays (depositor defined):AID1300, AID1808, AID504735, AID631]; type: protein assay
Protein skinhead-1 = biological target: T4, Protein skinhead-1 (Caenorhabditis elegans, UniProt P34707); type: functional
T4 sequence (P34707 whole entry): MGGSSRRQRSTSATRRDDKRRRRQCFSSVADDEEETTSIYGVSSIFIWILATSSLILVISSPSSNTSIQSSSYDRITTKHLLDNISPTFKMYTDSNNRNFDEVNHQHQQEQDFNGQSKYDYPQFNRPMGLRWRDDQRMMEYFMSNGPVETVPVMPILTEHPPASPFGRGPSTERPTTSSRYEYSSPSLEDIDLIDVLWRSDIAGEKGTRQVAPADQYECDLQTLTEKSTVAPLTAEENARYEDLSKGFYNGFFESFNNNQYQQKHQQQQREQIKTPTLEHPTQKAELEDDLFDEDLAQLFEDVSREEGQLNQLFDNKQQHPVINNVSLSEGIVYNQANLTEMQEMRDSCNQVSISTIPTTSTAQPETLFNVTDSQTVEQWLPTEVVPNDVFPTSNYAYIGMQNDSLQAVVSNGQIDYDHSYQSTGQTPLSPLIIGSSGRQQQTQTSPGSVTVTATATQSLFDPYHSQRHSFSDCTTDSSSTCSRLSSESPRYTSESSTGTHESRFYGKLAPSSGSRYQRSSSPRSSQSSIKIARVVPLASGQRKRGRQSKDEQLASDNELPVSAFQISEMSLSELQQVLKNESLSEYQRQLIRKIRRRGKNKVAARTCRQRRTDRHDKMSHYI

HEK293 [11] = assay: cells; conditions: Homo sapiens
HEK293 [12] = assay: inhibition of NOD1-driven NF-kB reporter – cell-based, luminescence, uHTS, primary screen (AID 1578); type: functional; conditions: Homo sapiens
HEK293 [13] = assay: cells; type: functional, cell-based; conditions: Homo sapiens
[14] = biological target: T5, Nucleotide-binding oligomerization domain-containing protein 2 (Homo sapiens, UniProt Q9HC29); assay: inhibition of NOD2-driven NF-kB reporter – cell-based, luminescence, uHTS, HEK293 (AID 1566); type: functional
T5 sequence (Q9HC29 whole entry, the tested form may be a part): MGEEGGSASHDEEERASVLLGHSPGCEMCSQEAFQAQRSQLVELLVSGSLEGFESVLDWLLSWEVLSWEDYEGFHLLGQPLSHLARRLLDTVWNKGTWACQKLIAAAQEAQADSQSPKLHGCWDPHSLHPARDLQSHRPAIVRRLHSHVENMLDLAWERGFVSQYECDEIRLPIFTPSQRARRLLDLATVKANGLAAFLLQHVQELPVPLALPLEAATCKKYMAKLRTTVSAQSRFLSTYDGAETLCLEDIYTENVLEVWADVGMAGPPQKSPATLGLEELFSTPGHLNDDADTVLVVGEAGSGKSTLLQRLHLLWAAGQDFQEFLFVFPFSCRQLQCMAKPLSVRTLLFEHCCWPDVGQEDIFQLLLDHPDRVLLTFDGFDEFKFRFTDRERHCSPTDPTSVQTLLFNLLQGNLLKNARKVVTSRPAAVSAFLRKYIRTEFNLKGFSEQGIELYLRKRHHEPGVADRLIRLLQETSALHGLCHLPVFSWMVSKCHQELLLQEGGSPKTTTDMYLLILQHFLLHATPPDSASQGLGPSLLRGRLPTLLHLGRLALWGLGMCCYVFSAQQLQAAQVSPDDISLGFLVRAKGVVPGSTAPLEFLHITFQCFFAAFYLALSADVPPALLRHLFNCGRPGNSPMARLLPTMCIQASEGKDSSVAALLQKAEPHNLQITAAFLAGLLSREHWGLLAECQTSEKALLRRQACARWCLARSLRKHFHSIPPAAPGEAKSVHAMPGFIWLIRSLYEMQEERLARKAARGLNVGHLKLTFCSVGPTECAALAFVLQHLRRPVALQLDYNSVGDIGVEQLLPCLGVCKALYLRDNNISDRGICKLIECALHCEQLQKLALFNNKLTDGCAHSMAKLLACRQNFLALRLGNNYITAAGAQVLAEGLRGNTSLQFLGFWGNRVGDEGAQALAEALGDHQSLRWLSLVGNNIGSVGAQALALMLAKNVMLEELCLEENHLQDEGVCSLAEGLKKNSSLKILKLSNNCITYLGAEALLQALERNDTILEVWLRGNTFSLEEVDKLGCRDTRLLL

[15] = biological target: T5, Nucleotide-binding oligomerization domain-containing protein 2; assay: PubChem AID 2334; type: functional
HEK293 [16] = assay: cells; type: functional, cell-based; conditions: Homo sapiens; remark: listed apart in the source
[17] = reduction of Shn3 3'UTR-driven luciferase in osteoblasts – cell-based, Clone20 osteoblasts, firefly luciferase, cherry-picked, dose response (AID 624132); type: functional;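 note: firefly luciferase luminescence from reporter carrying the Shn3 3'UTR in osteoblasts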
[18] = non-specific 3'UTR reporter inhibition in Clone20-Shn3RL – cell-based, Renilla luciferase, cherry-picked, counter-screen for Shn3 inhibitor project, dose response (AID 624133); type: functional
[19] = biological target: T6, Nucleotide-binding oligomerization domain-containing protein 1 (Homo sapiens, UniProt Q9Y239); assay: blockers of NOD1 pathway activity – revised, SAR follow-up (AID 2333); type: functional
T6 sequence (Q9Y239 whole entry): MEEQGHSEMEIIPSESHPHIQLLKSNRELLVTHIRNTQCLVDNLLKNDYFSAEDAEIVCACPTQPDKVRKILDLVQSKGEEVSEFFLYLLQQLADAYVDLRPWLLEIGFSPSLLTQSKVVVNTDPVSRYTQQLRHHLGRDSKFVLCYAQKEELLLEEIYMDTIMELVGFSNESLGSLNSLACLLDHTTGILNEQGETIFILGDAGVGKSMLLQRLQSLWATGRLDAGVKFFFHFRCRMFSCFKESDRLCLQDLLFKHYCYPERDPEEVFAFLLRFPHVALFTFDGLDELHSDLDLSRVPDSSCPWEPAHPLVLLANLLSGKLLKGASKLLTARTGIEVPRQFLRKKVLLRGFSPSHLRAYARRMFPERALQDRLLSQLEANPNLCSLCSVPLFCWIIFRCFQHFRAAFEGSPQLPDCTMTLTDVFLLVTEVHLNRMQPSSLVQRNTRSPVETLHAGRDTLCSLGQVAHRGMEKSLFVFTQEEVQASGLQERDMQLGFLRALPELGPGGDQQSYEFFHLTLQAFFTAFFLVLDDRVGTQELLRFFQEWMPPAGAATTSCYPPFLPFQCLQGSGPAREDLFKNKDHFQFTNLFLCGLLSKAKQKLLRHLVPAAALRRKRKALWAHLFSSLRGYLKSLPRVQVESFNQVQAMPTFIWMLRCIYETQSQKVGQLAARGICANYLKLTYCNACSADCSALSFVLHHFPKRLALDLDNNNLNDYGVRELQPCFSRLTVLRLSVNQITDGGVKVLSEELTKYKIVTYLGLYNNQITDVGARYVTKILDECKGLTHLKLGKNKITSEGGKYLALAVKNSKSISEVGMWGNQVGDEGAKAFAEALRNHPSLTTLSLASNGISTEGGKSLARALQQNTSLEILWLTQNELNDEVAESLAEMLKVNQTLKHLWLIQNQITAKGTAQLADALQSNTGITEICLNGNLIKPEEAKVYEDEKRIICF

INS1 = assay: INS-1E survival protection against cytokine death – cell-based, luminescence, retest, dose response (AID 449756); type: functional; conditions: Rattus norvegicus;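 note: cell death triggered by IL-1 beta plus TNF-alpha plus IFN-gamma mixture; protective hits raise ATP signal compared with cytokine alone wells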
Tumor necrosis factor = Tumor necrosis factor (Homo sapiens, UniProt P01375); assay: analog potency on TNFa NF-kB signaling – cell-based, revised, SAR follow-up (AID 2337); type: functional
Tumor necrosis factor, sequence (P01375 whole entry): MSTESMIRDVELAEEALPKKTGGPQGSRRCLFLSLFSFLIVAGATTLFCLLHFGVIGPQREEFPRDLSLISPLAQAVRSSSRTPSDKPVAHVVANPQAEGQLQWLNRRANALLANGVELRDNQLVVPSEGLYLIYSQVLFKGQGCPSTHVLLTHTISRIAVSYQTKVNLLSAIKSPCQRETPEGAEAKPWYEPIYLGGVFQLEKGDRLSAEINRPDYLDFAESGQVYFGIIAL

HEK293 [20] = assay: NOD2 signaling inhibitors in MDP-stimulated cells, cell-based, uHTS, luminescence (AID 2001); type: functional; conditions: Homo sapiens
HEK293 [21] = assay: cells; type: functional, cell-based; conditions: Homo sapiens; remark: listed apart in the source
Nonstructural protein 1 = Nonstructural protein 1 (Influenza A virus, UniProt Q194T2); type: functional, Influenza A virus (A/California/07/2009(H1N1))
Nonstructural protein 1, sequence (Q194T2 whole entry): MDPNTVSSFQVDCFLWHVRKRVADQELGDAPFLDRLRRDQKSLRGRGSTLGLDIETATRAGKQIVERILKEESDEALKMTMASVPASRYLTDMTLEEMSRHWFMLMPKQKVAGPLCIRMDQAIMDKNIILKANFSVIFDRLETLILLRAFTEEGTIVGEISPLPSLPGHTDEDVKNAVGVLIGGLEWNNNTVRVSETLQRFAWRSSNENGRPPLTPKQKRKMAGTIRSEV

[22] = biological target: Intestinal-type alkaline phosphatase (Homo sapiens, UniProt P09923); assay: human intestinal alkaline phosphatase activators, dose response, biochemical, luminescence, uHTS hits (AID 463120); type: functional
Intestinal-type alkaline phosphatase, sequence (P09923 whole entry): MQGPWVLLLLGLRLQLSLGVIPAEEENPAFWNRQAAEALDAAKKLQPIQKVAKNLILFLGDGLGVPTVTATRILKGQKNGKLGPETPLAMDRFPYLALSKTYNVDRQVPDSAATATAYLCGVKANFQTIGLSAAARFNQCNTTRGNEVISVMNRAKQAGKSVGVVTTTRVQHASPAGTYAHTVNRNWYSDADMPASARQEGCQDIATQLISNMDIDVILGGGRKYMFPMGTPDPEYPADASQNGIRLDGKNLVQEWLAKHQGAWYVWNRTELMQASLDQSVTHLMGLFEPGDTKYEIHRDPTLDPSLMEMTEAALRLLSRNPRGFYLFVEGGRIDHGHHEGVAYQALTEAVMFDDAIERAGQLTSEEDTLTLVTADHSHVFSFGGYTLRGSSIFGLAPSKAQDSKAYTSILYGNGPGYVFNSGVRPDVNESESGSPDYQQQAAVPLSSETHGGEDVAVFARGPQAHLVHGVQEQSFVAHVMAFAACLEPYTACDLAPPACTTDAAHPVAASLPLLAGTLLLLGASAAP

[23] = microbe, parasite or virus in culture; type: functional; conditions: Mycobacterium tuberculosis
HeLa = assay: ATP-based viability loss in HeLa cells – cell-based, CellTiter-Glo luminescence, cherry-pick samples, cytotoxicity control for MITF activator project, dose response (AID 540259); type: functional; conditions: Homo sapiens

CCOc1ccc2nc(NC(=O)c3cnc(C)cn3)sc2c1
IC50 (cells): 6.53 µM (active) | CC50 [1]: > 20 µM (active) | CC50 [2]: > 40 µM (active) | CC50 [3]: 12.7 µM (active)

CCCOc1ccc(-c2nc3c(c(=O)[nH]c(=O)n3Cc3ccccc3)n2CCO)cc1OCC
AC50 (CAAX prenyl protease 2 [4]): 14.5 µM (active)

CC(C)C(=O)Nc1c2c(nc3ccccc13)N(C)CC2
AC50 (CAAX prenyl protease 2 [5]): 24 µM (active) | AC50 (CAAX prenyl protease 2 [4]): 36.2 µM (active) | AC50 (Trypsin): 12.8 µM (active)

CCn1nnnc1SCC(=O)Nc1nc(C)c(C)s1
AC50 (CAAX prenyl protease 2 [5]): 9.77 µM (active)

O=C(Nc1ccccc1N1CCN(C(=O)c2ccccc2)CC1)c1ccc([N+](=O)[O-])o1
CC50 (Vero): 21.6 µM (active) | AC50 [6]: 11.4 µM (active)

CCc1ccc(-n2c(SCc3cc(=O)n4cc(Br)ccc4n3)nc3nncc-3c2O)cc1
EC50 [7]: 14.4 µM (not active) | EC50 [8]: > 79.4 µM (not active) | CC50 [9]: 17 µM (active) | EC50 [10]: > 79.4 µM (inactive)

O=C(Nc1ccc([N+](=O)[O-])cc1)c1ccccc1
AC50 [6]: 40.2 µM (active) | IC50 (Protein skinhead-1): > 100 µM (inactive)

Cc1nn(Cc2ccccc2Cl)c(C)c1C(=O)NCCN1C(=O)S/C(=C\c2ccccc2)C1=O
EC50 [7]: > 79.4 µM (not active) | EC50 [8]: > 79.4 µM (not active) | EC50 [10]: > 79.4 µM (inactive)

CCOC(=O)c1c(C)[nH]c(C)c1C(=O)CSc1nc2ccccc2c(=O)n1-c1ccc(CC)cc1
IC50 (HEK293 [11]): > 20 µM (inactive) | EC50 (HEK293 [12]): 6.9 µM (active) | IC50 (HEK293 [13]): > 20 µM (inactive) | EC50 [14]: 5.86 µM (active) | IC50 [15]: 12 µM (active) | IC50 (HEK293 [16]): > 20 µM (inactive) | AC50 [17]: 5.36 µM (active) | AC50 [18]: 6.48 µM (active) | IC50 [19]: 15.2 µM (active) | AC50 (INS1): 5.33 µM (active) | IC50 (Tumor necrosis factor): 11.1 µM (active) | IC50 (HEK293 [20]): 7.12 µM (active) | IC50 (HEK293 [21]): 13.4 µM (active)

CCC(=O)N1CCc2cc(S(=O)(=O)N3CCN(c4ccc(Cl)cc4)CC3)ccc21
IC50 (HEK293 [11]): > 20 µM (inactive) | IC50 [15]: > 20 µM (inactive) | IC50 [19]: > 20 µM (inactive) | IC50 (Tumor necrosis factor): > 20 µM (inactive)

CC(=O)N1CCc2cc(S(=O)(=O)N3CCN(c4ccc(C#N)cc4)CC3)ccc21
IC50 (HEK293 [11]): > 20 µM (inactive) | IC50 [15]: 9.24 µM (active) | IC50 [19]: 5.87 µM (active) | IC50 (Tumor necrosis factor): 8.79 µM (active)

O=C(NCCCN1CCOCC1)C(=O)N/N=C/c1ccccc1O
IC50 (Nonstructural protein 1): 11.2 µM (active) | EC50 [22]: 19.2 µM (active)

CC(C)c1ccc2nc(N)sc2c1
CC50 [23]: > 40 µM (active) | AC50 (HeLa): 54.4 µM (active)
